Measurements reported in US11667602B2, “Compounds and their use” (AstraZeneca AB, priority 2020, dated 2023).

Biological target: T1, human RXFP1 (Homo sapiens, UniProt Q9HBX9)
T1 sequence (Q9HBX9 1-757): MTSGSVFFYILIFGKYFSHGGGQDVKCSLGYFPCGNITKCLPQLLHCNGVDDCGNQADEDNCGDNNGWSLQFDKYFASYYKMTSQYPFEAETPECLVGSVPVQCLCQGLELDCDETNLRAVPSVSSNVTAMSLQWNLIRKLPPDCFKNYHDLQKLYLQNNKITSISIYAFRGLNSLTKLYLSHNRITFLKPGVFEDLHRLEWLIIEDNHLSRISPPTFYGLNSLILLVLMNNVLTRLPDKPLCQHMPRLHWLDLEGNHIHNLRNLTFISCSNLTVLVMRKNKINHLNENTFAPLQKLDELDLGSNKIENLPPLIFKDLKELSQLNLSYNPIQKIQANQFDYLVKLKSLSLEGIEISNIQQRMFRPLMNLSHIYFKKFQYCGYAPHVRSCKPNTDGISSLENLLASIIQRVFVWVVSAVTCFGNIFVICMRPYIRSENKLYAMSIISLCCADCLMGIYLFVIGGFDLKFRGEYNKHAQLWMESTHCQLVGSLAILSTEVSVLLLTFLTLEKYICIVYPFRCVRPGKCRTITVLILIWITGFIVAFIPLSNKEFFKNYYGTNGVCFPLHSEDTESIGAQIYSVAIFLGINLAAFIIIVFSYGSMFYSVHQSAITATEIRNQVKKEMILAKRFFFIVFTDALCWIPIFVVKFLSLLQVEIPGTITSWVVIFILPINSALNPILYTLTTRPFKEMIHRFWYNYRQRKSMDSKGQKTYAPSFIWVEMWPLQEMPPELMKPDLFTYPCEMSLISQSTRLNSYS
Assay: RXFP1 Hu cAMP (Test A)
Assay type: cell-based
Set-up: expressed in transfected cells; host or cells: Jump-In T-REx CHO-K1 cells (ThermoFisher), induced with 10 ng/ml doxycycline for 24 h
Conditions: RXFP1 Hu cAMP; for EC50: read-out: Test A EC50
Outline: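 Read-out is HTRF signal, inversely proportional to cAMP, converted to cAMP amount by standard curve. Stimulation occurred in inducible CHO-K1 cells expressing the human receptor with phosphodiesterases blocked by 0.5 mM IBMX.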

Compound | Test A Sinf [%] | EC50 [nM]
COc1cc(C#N)c(O[C@H]2CC[C@@](C)(C(=O)O)CC2)cc1C(=O)N[C@@H]1[C@H]2CC[C@H](C2)[C@@H]1C(=O)NC[C@H](C)c1ccccc1 [Example 118] | 99 | 43
COc1cc(F)c(O[C@H]2CC[C@@H](C(=O)O)CC2)cc1C(=O)N[C@@H]1[C@@H]2C[C@@H]([C@@H](O)[C@H]2O)[C@@H]1C(=O)Nc1cccc(S(=O)(=O)C(F)(F)F)c1 [Example 494] | 90 | 6900
COc1cc(F)c(O[C@H]2CC[C@@H](C(=O)O)CC2)cc1C(=O)N[C@H]1[C@H]2CC[C@H](C2)[C@H]1C(=O)Nc1cccc(S(F)(F)(F)(F)F)c1 [Example 510, (1R,4s)-4-(2-Fluoro-4-methoxy-5-(((1S,2S,3R,4R)-3-((3-(pentafluoro-6-sulfaneyl)phenyl)carbamoyl)bicyclo[2.2.1]heptan-2-yl)carbamoyl)phenoxy)cyclohexane-1-carboxylic acid] | 63 | 1600
Cn1ncc2c(O[C@H]3CC[C@@](C)(C(=O)O)CC3)cc(C(=O)N[C@@H]3[C@H]4CC[C@H](C4)[C@@H]3C(=O)NCC3(C)CCC3)cc21 [Example 379] | 100 | 480
COc1cc(F)c(OCCCCCCCCC(=O)O)cc1C(=O)N[C@@H]1[C@H]2CC[C@H](C2)[C@@H]1C(=O)Nc1cccc(S(=O)(=O)C(F)(F)F)c1 [Example 437] | 104 | 950
COc1cc(F)c(O[C@H]2CC[C@@](C)(C(=O)O)CC2)cc1C(=O)N[C@@H]1CCCO[C@@H]1C(=O)Nc1cccc(S(=O)(=O)C(F)(F)F)c1 [Example 357] | 101 | 5400
COCCOc1cc(F)c(O[C@H]2CC[C@@](C)(C(=O)O)CC2)cc1C(=O)N[C@@H]1[C@H]2CC[C@H](C2)[C@@H]1C(=O)NCC1(C)CCC1 [Example 391] | 99 | 110
COc1cc(F)c(O[C@H]2CC[C@@](O)(C(=O)O)CC2)cc1C(=O)N[C@@H]1[C@@H]2CC[C@@H](C2)[C@@H]1C(=O)Nc1cccc(S(=O)(=O)C(F)(F)F)c1 (racemic) [Example 422, (1R,4r)-4-(2-Fluoro-4-methoxy-5-(((1RS,2RS,3SR,4SR)-3-((3-((trifluoromethyl)sulfonyl)phenyl)carbamoyl)bicyclo[2.2.1]heptan-2-yl)carbamoyl)phenoxy)-1-hydroxycyclohexane-1-carboxylic acid] | 102 | 86
COc1cc(F)c(O[C@H]2CC[C@@](C)(C(=O)O)CC2)cc1C(=O)N[C@@H]1[C@@H](O)[C@@H](O)C[C@@H]1C(=O)Nc1cccc(S(=O)(=O)C(F)(F)F)c1 (racemic) [Example 394, (1R,4s)-4-(5-(((1SR,2RS,3SR,5SR)-2,3-Dihydroxy-5-((3-((trifluoromethyl)sulfonyl)phenyl)carbamoyl)cyclopentyl)carbamoyl)-2-fluoro-4-methoxyphenoxy)-1-methylcyclohexane-1-carboxylic acid] | – | > 40000
COc1cc(F)c(O[C@H]2CC[C@@H](C(=O)O)CC2)cc1C(=O)N[C@H]1[C@@H](C(=O)Nc2ccc(F)c(S(=O)(=O)C(F)(F)F)c2)[C@@H]2C=C[C@H]1C2 [Example 489] | 115 | 12
COc1cc(F)c(O[C@H]2CC[C@](C)(CC(=O)O)CC2)cc1C(=O)N[C@@H]1[C@H]2CC[C@H](C2)[C@@H]1C(=O)NCC1(C)CCC1 [Example 477, 2-((1R,4r)-4-(2-Fluoro-4-methoxy-5-(((1S,2R,3S,4R)-3-(((1-methylcyclobutyl)methyl)carbamoyl)bicyclo[2.2.1]heptan-2-yl)carbamoyl)phenoxy)-1-methylcyclohexyl)acetic acid] | 84 | –
COc1cc(F)c(OCc2cccc(CC(=O)O)c2)cc1C(=O)N[C@H]1[C@@H](C(=O)Nc2cccc(S(=O)(=O)C(F)(F)F)c2)[C@@H]2C=C[C@H]1C2 (racemic) [Example 453] | 155 | 2000
COc1cc(C#N)c(O[C@H]2CC[C@@](C)(C(=O)O)CC2)cc1C(=O)Nc1cc(C)ccc1C(=O)N[C@H](C)C(C)C [Example 170] | 136 | 190
COc1cc(F)c(-c2ccc(C(=O)O)cc2)cc1C(=O)N[C@H]1[C@@H](C(=O)Nc2ccc(F)c(C#N)c2)[C@@H]2C=C[C@H]1C2 (racemic) [Example 309] | 80 | 4000
COc1cc(F)c(OC2CCC(N)(C(=O)O)CC2)cc1C(=O)N[C@@H]1[C@H]2CC[C@H](C2)[C@@H]1C(=O)Nc1cccc(S(=O)(=O)C(F)(F)F)c1 (stereo partly drawn) [Example 458, 1-Amino-4-(2-fluoro-4-methoxy-5-(((1S,2R,3S,4R)-3-((3-((trifluoromethyl)sulfonyl)phenyl)carbamoyl)bicyclo[2.2.1]heptan-2-yl)carbamoyl)phenoxy)cyclohexane-1-carboxylic acid] | 104 | 110
COc1cc(F)c(O[C@H]2CC[C@@](C)(C(=O)O)CC2)cc1C(=O)N[C@H]1[C@@H](C(=O)Nc2cccc(S(=O)(=O)C(F)(F)F)c2)CC[C@H]1OC (racemic) [Example 397, (1R,4s)-4-(2-Fluoro-4-methoxy-5-(((1SR,2RS,5SR)-2-methoxy-5-((3-((trifluoromethyl)sulfonyl)phenyl)carbamoyl)cyclopentyl)carbamoyl)phenoxy)-1-methylcyclohexane-1-carboxylic acid] | – | > 40000
COc1cc(F)c(-c2ccc(C(=O)O)cn2)cc1C(=O)N[C@H]1[C@@H](C(=O)Nc2cccc(S(=O)(=O)C(F)(F)F)c2)[C@@H]2C=C[C@H]1C2 (racemic) [Example 278] | 104 | –
COc1cc(C#N)c(O[C@H]2CC[C@@](C)(C(=O)O)CC2)cc1C(=O)N[C@@H]1[C@H]2CC[C@H](C2)[C@@H]1C(=O)NCCC(C)(C)C [Example 130] | 95 | 78
COc1cc(C#N)c(O[C@H]2CC[C@@](C)(C(=O)O)CC2)cc1C(=O)Nc1cc(C)ccc1C(=O)N[C@H]1C[C@@H](C)C1 [Example 171] | 119 | 440
(1R,4s)-4-(2-Fluoro-4-methoxy-5-(((3S*,4R*)-4-(((1-methylcyclobutyl)methyl)carbamoyl)tetrahydrofuran-3-yl)carbamoyl)phenoxy)-1-(hydroxymethyl)cyclohexane-1-carboxylic acid [Example 581] | 94 | –
COc1cc(F)c(Cn2nccc2C(=O)O)cc1C(=O)N[C@@H]1[C@H]2CC[C@H](C2)[C@@H]1C(=O)Nc1cccc(S(=O)(=O)C(F)(F)F)c1 [Example 221, 1-(2-Fluoro-4-methoxy-5-(((1S,2R,3S,4R)-3-((3-((trifluoromethyl)sulfonyl)phenyl)carbamoyl)bicyclo[2.2.1]heptan-2-yl)carbamoyl)benzyl)-1H-pyrazole-5-carboxylic acid] | – | > 40000
COc1cc(F)c(O[C@H]2CC[C@@](C)(C(=O)O)CC2)cc1C(=O)N[C@@H]1[C@H]2CC[C@H](C2)[C@@H]1C(=O)NCC1(OC)CCC1 [Example 593, (1S,4s)-4-(2-Fluoro-4-methoxy-5-(((1S,2R,3S,4R)-3-(((1-methoxycyclobutyl)methyl)carbamoyl)bicyclo[2.2.1]heptan-2-yl)carbamoyl)phenoxy)-1-methylcyclohexane-1-carboxylic acid] | 118 | 520
COc1cc(F)c(O[C@H]2CC[C@@](C)(C(=O)O)CC2)cc1C(=O)N[C@@H]1[C@H]2CC[C@H](C2)[C@@H]1C(=O)NCC1(F)CCC1 [Example 609] | 108 | 400
COc1cc(F)c(OC2CCC(CO)(C(=O)O)CC2)cc1C(=O)NC1CC(OC)CC1C(=O)NCC1(C)CCC1 (single isomer, unassigned) [Example 550, (1R,4s)-4-(2-Fluoro-4-methoxy-5-(((1S*,2R*,4R*)-4-methoxy-2-(((1-methylcyclobutyl)methyl)carbamoyl)cyclopentyl)carbamoyl)phenoxy)-1-(hydroxymethyl)cyclohexane-1-carboxylic acid] | – | > 40000
COc1cc(F)c(O[C@H]2CC[C@@](CO)(C(=O)O)CC2)cc1C(=O)NC1COCC1C(=O)NCC1(C)CCC1 (single isomer, unassigned) [Example 580, (1R,4s)-4-(2-Fluoro-4-methoxy-5-(((3S*,4R*)-4-(((1-methylcyclobutyl)methyl)carbamoyl)tetrahydrofuran-3-yl)carbamoyl)phenoxy)-1-(hydroxymethyl)cyclohexane-1-carboxylic acid] | – | > 40000
COc1cc(F)c(OC2CCC(C(=O)O)CC2)cc1C(=O)N[C@H]1[C@@H](C(=O)Nc2cccc(S(=O)(=O)C(F)(F)F)c2)[C@@H]2C=C[C@H]1C2 (mixture of isomers) [Example 457] | 56 | –
COC[C@]1(C(=O)O)CC[C@@H](Oc2cc(C(=O)N[C@@H]3[C@H]4CC[C@H](C4)[C@@H]3C(=O)NCC(C)(C)C)c(OC)cc2F)CC1 [Example 481] | 96 | –
